Where two headings read alike, the source gives them in different places.
Columns and labels:
[1] = molecular target: T1, ACAT enzyme (rabbit intestinal mucosa microsome) (Oryctolagus cuniculus, UniProt G1SFD9)
T1 sequence (G1SFD9 1-524): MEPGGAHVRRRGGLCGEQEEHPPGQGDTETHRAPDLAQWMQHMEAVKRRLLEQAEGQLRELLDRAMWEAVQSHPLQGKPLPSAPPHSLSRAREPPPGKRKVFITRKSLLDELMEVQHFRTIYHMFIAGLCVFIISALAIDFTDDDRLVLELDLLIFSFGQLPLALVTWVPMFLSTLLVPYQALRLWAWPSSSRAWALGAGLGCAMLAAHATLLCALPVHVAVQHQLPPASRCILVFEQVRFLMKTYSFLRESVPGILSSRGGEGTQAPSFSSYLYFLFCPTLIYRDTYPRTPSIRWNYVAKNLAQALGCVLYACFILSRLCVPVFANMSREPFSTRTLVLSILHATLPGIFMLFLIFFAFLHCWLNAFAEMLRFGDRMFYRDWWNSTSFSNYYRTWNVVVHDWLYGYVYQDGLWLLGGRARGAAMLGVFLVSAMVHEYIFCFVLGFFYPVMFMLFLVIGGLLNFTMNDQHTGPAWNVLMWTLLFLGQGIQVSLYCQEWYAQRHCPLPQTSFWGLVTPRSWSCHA

serum cholesterol = assay: Percentage change of serum cholesterol in rats fed a feed enriched with cholesterol and fat; assay type: in vivo, male Wistar rats; conditions: Rattus norvegicus, po, 72 h, Wistar rats, vs control; for change in vivo at 10 mg/kg: 10 mg per kg orally once a day for three days; for change in vivo at 1 mg/kg: 1 mg/kg orally once a day for three days
Source text: Percentage change of serum cholesterol
Male Wistar rats having a weight of 200 g were preliminarily bred for 7 days while they freely ingested a normal feed (CE-2 manufactured by CLEA Japan Inc.).
Thereafter, they were bred for 3 days while they freely ingested a feed enriched with cholesterol and fat (2% cholesterol, 1% cholic acid, 20% casein, 45% fine granulated sugar, 12% coconut oil, 4% KC flock, 1% mixed vitamin, 7% mixed mineral and 8% dried fish powder; a product of CLEA Japan Inc.). […] On the other hand, the excipient alone was administered to the control animals.
8 hr after the last administration, the test animals were fasted. 16 hr after the initiation of the fasting, these test animals were slaughtered. The serum cholesterol level was measured for each animal.
The results were compared with those of the control and are given as percentage serum cholesterol (%) in Table 3.
Percentage change of serum cholesterol (%)={(A-B)/B}×100
wherein A represents the total cholesterol level of serum in the group of rats to which the test compound was administered; and B represents the total cholesterol level of serum in the control group of rats.

SMILES	IC50 [1] [nM]	also measured
CCCCCCCCCCCCNC(=O)Nc1c(C)ccc2c1OCCC2=O [Ex. 1, 1-Dodecyl-3-(7-methyl-4-chromanon-8-yl)urea]	73	–
CCCCCCCCCCC(C)(C)C(=O)Nc1c(OC)ccc2c1OCCC2=O [Ex. 2, N-(7-Methoxy-4-chromanon-8-yl)-2,2-dimethyldodecanamide]	13	–
CCCCCCCCCCCCNC(=O)Nc1c(OC)ccc2c1OCCC2(C)C [Ex. 3]	340	–
CCCCCCCCCCCCNC(=O)Nc1c(OC)ccc2c(=O)ccoc12 [Ex. 10]	330	–
CCCCCCCCCCC1(C(=O)Nc2ccc(OC)c3c2OCCC3(C)C)CCCC1 [Ex. 13]	1200	–
CCCCCCCCCCCCCCCC(=O)Nc1c(C)ccc2c1OCCC2=O [Ex. 18]	7.8	–
CCCCCCCCCCC(C)(C)C(=O)Nc1c(C)ccc2c1OCCC2=O [Ex. 19]	210	change in vivo at 10 mg/kg (serum cholesterol): -27%
Cc1ccc2c(c1NC(=O)C(C)(C)CCCCOCCCC(C)C)OCCC2=O [Ex. 26]	340	–
Cc1ccc2c(c1NC(=O)C(C)(C)CCCCCCOCC(C)(C)C)OCCC2=O [Ex. 28]	54	change in vivo at 10 mg/kg (serum cholesterol): -31%
Cc1ccc2c(c1NC(=O)C(C)(C)CCCCCCOCCCC(C)C)OCCC2=O [Ex. 29]	200	change in vivo at 10 mg/kg (serum cholesterol): -22%
COc1ccc2c(c1NC(=O)C(C)(C)CCCCCCBr)OCCC2=O [Ex. 37, N-(7-methoxy-4-chromanon-8-yl)-2,2-dimethyl-8-bromooctaneamide]	25	–
COc1ccc2c(c1NC(=O)C(C)(C)CCCCCCc1ccccc1)OCCC2=O [Ex. 38]	44	–
Cc1cc(C)c2c(c1NC(=O)C(C)(C)CCCCCCOCC(C)C)OCCC2=O [Ex. 43]	90	–
Cc1cc(C)c2c(c1NC(=O)C(C)(C)CCCCCOc1ccc(Cl)cc1)OCCC2=O [Ex. 44]	400	–
COc1ccc2c(c1NC(=O)C(C)(C)CCCCCCOc1ccc(Cl)cc1)C(=O)CCO2 [Ex. 45]	180	–
CCCCCCCCCCC(C)(C)C(=O)Nc1c(Cl)ccc2c1OCCC2=O [Ex. 47]	150	–
CCCCCCCCCCC(C)(C)C(=O)Nc1c(OCCC)ccc2c1OCCC2=O [Ex. 48]	14	–
CCCCCCCCCCCCCCC(C)(C)C(=O)Nc1c(OC)ccc2c(=O)ccoc12 [Ex. 49]	–	IC50 ([1]; read-out: ACAT Inhibitory Activity, IC50, rabbit intestinal mucosa microsome, [1-14C] oleoyl CoA, 37° C.): 52 nM
CCCCCCCCCCC1(C(=O)Nc2c(OC)ccc3c(=O)ccoc23)CCCC1 [Ex. 50]	270	change in vivo at 10 mg/kg (serum cholesterol): -27%
COc1ccc2c(=O)ccoc2c1NC(=O)C(C)(C)CCCCOc1ccc(C(C)(C)C)cc1 [Ex. 51]	190	–
COc1ccc2c(=O)ccoc2c1NC(=O)C(C)(C)CCCCCOc1ccc(Cl)cc1 [Ex. 52]	160	change in vivo at 3 mg/kg (serum cholesterol; 3 mg/kg orally once a day for three days): -17%
CCCCCCCCCCC(C)(C)C(=O)Nc1c(OC)ccc2c(=O)cc(CC)oc12 [Ex. 54]	780	–
COc1ccc2c(c1NC(=O)C(C)(C)CCCCCCOc1ccc(N(C)C)cc1)OCCC2=O [Ex. 55, N-(7-Methoxy-4-chromanon-8-yl)-2,2-dimethyl-8-p-dimethylaminophenoxyoctaneamide]	81	–

The next lines start with results.

IC50 [1] [nM]	SMILES	also measured
690	COc1ccc2c(c1NC(=O)NCC1(c3ccccc3)CCCC1)OCCC2(C)C [Ex. 4]	–
530	Cc1ccc2c(c1NC(=O)NCC1(c3ccccc3)CCCC1)OCCC2=O [Ex. 6]	–
500	COc1ccc(C2(CNC(=O)Nc3c(C)ccc4c3OCCC4=O)CCCC2)cc1 [Ex. 7]	–
170	CCCCCCCCCCC1(C(=O)Nc2c(C)ccc3c2OCCC3=O)CCCC1 [Ex. 20]	change in vivo at 10 mg/kg (serum cholesterol): -29%
250	Cc1ccc2c(c1NC(=O)C(C)(C)CCCCCc1ccccc1)OCCC2=O [Ex. 25]	change in vivo at 10 mg/kg (serum cholesterol): -32%
50	Cc1ccc2c(c1NC(=O)C(C)(C)CCCCOc1ccc(C(C)(C)C)cc1)OCCC2=O [Ex. 30]	–
510	Cc1ccc2c(c1NC(=O)C(C)(C)CCCCOc1ccc(Cl)cc1)OCCC2=O [Ex. 31]	–
470	Cc1ccc2c(c1NC(=O)C(C)(C)CCCCCOc1ccc(Cl)cc1)OCCC2=O [Ex. 32]	change in vivo at 10 mg/kg (serum cholesterol): -33%
43	COc1ccc2c(c1NC(=O)C(C)(C)CCCCCCOc1ccc(C)cc1)OCCC2=O [Ex. 40]	–
52	COc1ccc2c(c1NC(=O)C(C)(C)CCCCCOc1ccc(Cl)cc1)OCCC2=O [Ex. 41]	change in vivo at 1 mg/kg (serum cholesterol): -40%
64	COc1ccc2c(c1NC(=O)C(C)(C)CCCCCCOc1ccc(Cl)cc1)OCCC2=O [Ex. 42]	change in vivo at 1 mg/kg (serum cholesterol): -51%

— patent US5574061A, “Benzopyran derivative, process for producing the same and pharmaceutical composition containing the same” (priority 1990, dated 1996)
